Measured values: ChEMBL document CHEMBL1268971, “4,5-Dihydro-1H-pyrazolo[4,3-h]quinazolines as potent and selective Polo-like kinase 1 (PLK1) inhibitors” (Bioorg Med Chem Lett, 2010)
The source made the active and inactive calls. No cut-off for these calls is given here.

Tests used:
[1] = AUC (0 to infinity) in CD1 mouse at 10 mg/kg, po administered as single dose by LC/MS/MS analysis; assay type: ADME, organism-based; parameters: time infinity, dose 10 mg/kg, route oral; conditions: plasma
A2780 [2] = assay: Antitumor against human A2780 cells xenografted in CD1 mouse assessed as tumor growth inhibition at 30 mg/kg, iv BID administered on day 1, 2, 3 post-implantation measured on day 12; assay type: functional; conditions: read-out: TGI
[3] = target: ALK tyrosine kinase receptor (Homo sapiens, UniProt Q9UM73); assay: Inhibition of ALK
U2OS = assay: Induction of cell cycle arrest in human U2OS cells assessed as pSer46 TCTP signal inhibition of after 1 hr by array scan assay; assay type: functional, cell-based
[4] = target: Serine/threonine-protein kinase PLK2 (Homo sapiens, UniProt Q9NYY3); assay: Inhibition of PLK2
[5] = target: Serine/threonine-protein kinase PLK3 (Homo sapiens, UniProt Q9H4B4); assay: Inhibition of PLK3
[6] = Permeability of the compound by PAMPA; assay type: ADME
[7] = Volume of distribution at steady state in CD1 mouse at 10 mg/kg, iv administered as single dose by LC/MS/MS analysis; assay type: ADME, organism-based; parameters: dose 10 mg/kg, route intravenous; conditions: in vivo, read-out: Vdss
[8] = Antiproliferative activity against human KU812 cells after 72 hrs by CellTiter-Glo assay; assay type: functional, cell-based; conditions: KU812, 72 h
MIA PaCa-2 = assay: Antiproliferative activity against human MIAPaCa2 cells after 72 hrs by CellTiter-Glo assay; assay type: functional, cell-based; conditions: MIA PaCa-2, 72 h
NCI-H1993 = assay: Antiproliferative activity against human NCI-H1993 cells after 72 hrs by CellTiter-Glo assay; assay type: functional, cell-based; conditions: NCI-H1993, 72 h
[9] = AUC (0 to infinity) in CD1 mouse at 10 mg/kg, iv administered as single dose by LC/MS/MS analysis; assay type: ADME, organism-based; parameters: time infinity, dose 10 mg/kg, route intravenous; conditions: plasma
[10] = Antiproliferative activity against human A2780/E6 cells after 72 hrs by CellTiter-Glo assay; assay type: functional, cell-based; conditions: A2780/E6, 72 h
A2780 [11] = assay: Induction of cell cycle arrest in human A2780 cells assessed as accumulation at G2/M phase at 0.005 to 0.5 uM after 24 hrs; assay type: functional, cell-based
HCT-116 = assay: Antitumor against human HCT116 cells xenografted in CD1 mouse assessed as tumor growth inhibition at 60 mg/kg, po daily administered on day 1, 2, 3 post-implantation for 2 cycles; conditions: HCT-116, po, read-out: TGI
[12] = Antiproliferative activity against human A2780/ADR cells after 72 hrs by CellTiter-Glo assay; assay type: functional, cell-based
A2780 [13] = assay: cells; conditions: Homo sapiens, A2780, 72 h
[14] = Antiproliferative activity against human 1A9PTX22 cells after 72 hrs by CellTiter-Glo assay; assay type: functional, cell-based; conditions: 1A9/ptx-22, 72 h
[15] = Intrinsic clearance in human liver microsomes; assay type: ADME, Microsome
A2780 [16] = assay: Antiproliferative activity against […] human A2780 cells after 72 hrs by CellTiter-Glo assay; assay type: functional, cell-based; conditions: A2780, 72 h
A2780 [17] = assay: Induction of apoptosis in human A2780 cells assessed as induction of PARP cleavage at 0.005 to 0.5 uM after 24 hrs
[18] = Cmax in CD1 mouse at 10 mg/kg, po administered as single dose by LC/MS/MS analysis; assay type: ADME, organism-based; parameters: dose 10 mg/kg, route oral; conditions: in vivo
[19] = Solubility of the compound at 105 Tween 80; assay type: physicochemical
[20] = Clearance in CD1 mouse at 10 mg/kg, iv administered as single dose by LC/MS/MS analysis; assay type: ADME, organism-based; parameters: dose 10 mg/kg, route intravenous; conditions: in vivo
[21] = target: Serine/threonine-protein kinase Nek6 (Homo sapiens, UniProt Q9HC98); assay: Inhibition of NEK6
HT-29 = assay: Antiproliferative activity against human HT-29 cells after 72 hrs by CellTiter-Glo assay; assay type: functional, cell-based; conditions: HT-29, 72 h
Mus musculus = assay: Toxicity in CD1 mouse xenografted with human HCT116 cells assessed as reversible body weight loss at 60 mg/kg, po daily administered on day 1, 2, 3 post-implantation in weekly schedule of 2 cycles; conditions: in vivo
[22] = Inhibition of casein kinase 2
HL-60 = assay: Antiproliferative activity against human HL60 cells after 72 hrs by CellTiter-Glo assay; assay type: functional, cell-based; conditions: HL-60, 72 h
[23] = Inhibition of PDGFR
[24] = target: T1, Receptor-type tyrosine-protein kinase FLT3 (Homo sapiens, UniProt P36888); assay: Inhibition of FLT3
T1 sequence (P36888 whole entry): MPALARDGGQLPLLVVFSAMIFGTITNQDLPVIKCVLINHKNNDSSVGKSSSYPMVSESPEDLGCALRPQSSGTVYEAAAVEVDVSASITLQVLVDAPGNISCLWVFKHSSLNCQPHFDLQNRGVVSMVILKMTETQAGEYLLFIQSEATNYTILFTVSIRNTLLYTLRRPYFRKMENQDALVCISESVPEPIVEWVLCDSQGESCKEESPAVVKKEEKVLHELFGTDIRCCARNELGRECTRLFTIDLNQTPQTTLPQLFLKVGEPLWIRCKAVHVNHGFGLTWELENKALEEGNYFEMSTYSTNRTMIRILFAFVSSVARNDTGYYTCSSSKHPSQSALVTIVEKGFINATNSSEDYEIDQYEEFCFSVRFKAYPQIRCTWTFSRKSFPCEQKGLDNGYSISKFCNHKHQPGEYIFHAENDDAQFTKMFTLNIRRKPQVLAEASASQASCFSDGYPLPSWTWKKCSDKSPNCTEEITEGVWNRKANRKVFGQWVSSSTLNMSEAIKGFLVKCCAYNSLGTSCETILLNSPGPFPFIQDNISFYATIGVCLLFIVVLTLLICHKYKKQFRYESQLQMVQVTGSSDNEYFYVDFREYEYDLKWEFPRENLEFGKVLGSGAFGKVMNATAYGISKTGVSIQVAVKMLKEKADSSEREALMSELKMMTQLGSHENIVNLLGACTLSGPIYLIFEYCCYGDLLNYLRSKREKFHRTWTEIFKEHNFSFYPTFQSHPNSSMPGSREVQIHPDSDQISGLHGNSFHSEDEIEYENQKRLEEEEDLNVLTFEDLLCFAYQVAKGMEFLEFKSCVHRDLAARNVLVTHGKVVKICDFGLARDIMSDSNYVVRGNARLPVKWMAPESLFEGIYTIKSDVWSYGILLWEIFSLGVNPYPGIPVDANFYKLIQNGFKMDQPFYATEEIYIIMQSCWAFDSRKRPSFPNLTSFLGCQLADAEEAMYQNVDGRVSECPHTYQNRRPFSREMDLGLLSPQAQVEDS

[25] = target: Cyclin-dependent kinase 2/cyclin A (Homo sapiens, UniProt P24941); assay: Inhibition of CDK2/Cyclin A; assay type: protein-complex assay
[26] = Terminal half life in CD1 mouse at 10 mg/kg, po administered as single dose by LC/MS/MS analysis; assay type: ADME, organism-based; parameters: dose 10 mg/kg, route oral; conditions: in vivo, read-out: beta t1/2 (converted)

Chain of Serine/threonine-protein kinase PLK2 (Q9NYY3 whole entry): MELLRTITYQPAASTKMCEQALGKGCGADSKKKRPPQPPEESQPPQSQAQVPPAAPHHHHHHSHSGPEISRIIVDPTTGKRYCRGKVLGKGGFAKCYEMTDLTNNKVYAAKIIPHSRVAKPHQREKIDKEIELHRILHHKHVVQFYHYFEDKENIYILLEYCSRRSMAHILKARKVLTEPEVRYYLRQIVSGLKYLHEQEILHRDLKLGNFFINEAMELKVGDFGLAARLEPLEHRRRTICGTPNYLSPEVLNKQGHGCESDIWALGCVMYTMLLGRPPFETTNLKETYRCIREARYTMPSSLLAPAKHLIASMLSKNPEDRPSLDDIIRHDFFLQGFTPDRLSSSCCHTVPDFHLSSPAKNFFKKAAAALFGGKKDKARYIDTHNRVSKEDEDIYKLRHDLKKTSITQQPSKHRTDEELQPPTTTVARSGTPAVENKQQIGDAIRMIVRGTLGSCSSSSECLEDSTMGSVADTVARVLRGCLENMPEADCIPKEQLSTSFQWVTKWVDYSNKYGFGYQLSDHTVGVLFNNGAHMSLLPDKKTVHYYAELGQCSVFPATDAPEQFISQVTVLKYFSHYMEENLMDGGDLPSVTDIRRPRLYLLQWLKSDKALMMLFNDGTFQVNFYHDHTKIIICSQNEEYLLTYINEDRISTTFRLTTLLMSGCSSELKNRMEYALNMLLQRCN
Chain of Serine/threonine-protein kinase Nek6 (Q9HC98 whole entry): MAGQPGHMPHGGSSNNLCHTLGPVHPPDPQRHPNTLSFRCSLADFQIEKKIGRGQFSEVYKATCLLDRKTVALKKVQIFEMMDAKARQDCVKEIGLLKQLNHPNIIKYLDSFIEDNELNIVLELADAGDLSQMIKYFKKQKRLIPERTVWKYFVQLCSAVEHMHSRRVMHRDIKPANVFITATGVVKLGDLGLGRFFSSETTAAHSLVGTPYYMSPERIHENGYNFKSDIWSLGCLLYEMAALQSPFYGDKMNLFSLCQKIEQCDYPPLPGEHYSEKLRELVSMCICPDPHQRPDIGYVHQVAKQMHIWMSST
Chain of ALK tyrosine kinase receptor (Q9UM73 whole entry): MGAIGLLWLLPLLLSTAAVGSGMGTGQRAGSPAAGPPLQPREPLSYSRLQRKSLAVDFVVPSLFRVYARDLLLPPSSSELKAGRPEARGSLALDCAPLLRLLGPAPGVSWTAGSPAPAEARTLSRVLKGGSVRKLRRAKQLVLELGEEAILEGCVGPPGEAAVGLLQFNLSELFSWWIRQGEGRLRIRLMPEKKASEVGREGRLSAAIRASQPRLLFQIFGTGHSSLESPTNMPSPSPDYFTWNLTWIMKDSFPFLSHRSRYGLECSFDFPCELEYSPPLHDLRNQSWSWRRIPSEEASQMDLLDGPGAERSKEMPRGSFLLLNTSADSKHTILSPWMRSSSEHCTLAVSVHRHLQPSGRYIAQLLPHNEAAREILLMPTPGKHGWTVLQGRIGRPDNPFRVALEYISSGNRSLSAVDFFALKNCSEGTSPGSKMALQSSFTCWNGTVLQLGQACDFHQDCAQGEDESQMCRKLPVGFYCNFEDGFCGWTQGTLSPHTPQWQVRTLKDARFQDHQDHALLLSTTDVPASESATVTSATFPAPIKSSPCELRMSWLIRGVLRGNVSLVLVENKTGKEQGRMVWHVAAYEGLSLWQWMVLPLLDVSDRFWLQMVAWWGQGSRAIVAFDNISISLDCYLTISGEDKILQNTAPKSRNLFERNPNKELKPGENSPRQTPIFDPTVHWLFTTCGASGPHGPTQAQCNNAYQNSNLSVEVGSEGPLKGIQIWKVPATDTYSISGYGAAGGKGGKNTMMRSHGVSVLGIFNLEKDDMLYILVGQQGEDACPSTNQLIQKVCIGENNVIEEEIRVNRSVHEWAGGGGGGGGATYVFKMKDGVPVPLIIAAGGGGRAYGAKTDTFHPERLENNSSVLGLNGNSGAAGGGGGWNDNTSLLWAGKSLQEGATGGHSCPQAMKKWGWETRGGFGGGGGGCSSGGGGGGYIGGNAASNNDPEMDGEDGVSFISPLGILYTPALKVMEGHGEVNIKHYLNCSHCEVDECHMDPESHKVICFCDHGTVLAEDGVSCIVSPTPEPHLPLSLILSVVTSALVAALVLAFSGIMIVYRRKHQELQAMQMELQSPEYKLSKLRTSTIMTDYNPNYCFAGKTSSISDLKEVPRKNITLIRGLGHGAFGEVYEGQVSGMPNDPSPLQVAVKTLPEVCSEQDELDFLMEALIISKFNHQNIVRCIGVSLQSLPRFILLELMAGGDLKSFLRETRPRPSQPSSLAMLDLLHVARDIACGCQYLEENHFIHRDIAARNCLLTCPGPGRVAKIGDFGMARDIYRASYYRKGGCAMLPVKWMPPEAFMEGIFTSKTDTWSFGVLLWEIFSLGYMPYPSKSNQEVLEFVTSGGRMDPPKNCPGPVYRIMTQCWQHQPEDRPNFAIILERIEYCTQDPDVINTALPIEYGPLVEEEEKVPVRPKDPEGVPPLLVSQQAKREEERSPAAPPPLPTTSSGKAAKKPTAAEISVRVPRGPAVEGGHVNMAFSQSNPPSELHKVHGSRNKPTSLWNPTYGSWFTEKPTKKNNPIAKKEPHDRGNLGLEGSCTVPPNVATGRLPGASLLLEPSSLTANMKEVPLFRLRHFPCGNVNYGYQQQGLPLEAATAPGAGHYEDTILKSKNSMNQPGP
Chain of Serine/threonine-protein kinase PLK3 (Q9H4B4 whole entry): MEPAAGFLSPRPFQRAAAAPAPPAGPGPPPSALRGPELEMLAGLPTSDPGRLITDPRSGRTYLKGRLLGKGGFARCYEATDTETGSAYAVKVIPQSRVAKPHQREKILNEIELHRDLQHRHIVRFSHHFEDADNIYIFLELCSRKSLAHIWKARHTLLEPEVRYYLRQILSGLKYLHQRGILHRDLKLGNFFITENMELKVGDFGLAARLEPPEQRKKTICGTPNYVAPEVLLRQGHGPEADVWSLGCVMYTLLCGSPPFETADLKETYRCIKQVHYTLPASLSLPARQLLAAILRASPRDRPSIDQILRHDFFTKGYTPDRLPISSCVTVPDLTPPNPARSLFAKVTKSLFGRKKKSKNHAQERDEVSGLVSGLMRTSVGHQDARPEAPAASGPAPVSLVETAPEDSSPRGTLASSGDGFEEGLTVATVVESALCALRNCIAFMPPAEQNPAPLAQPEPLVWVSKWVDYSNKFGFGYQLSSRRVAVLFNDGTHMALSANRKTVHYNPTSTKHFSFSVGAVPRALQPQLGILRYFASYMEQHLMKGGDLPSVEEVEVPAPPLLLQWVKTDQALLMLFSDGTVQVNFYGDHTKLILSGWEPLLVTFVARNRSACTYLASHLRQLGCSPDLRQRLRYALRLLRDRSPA

SMILES: CN1CCN(c2ccc(OC(F)(F)F)c(Nc3ncc4c(n3)-c3c(c(C(N)=O)nn3C)CC4)c2)CC1
- AUC(0-inf) [1]: 1.04 µM·h
- inhibition in vivo at 30 mg/kg (A2780 [2]): 74%
- IC50 [3]: > 10000 nM
- IC50 (U2OS): 95 nM
- IC50 [4]: 3520 nM
- IC50 [5]: 1440 nM
- Papp [6]: 50 ×10⁻⁶ cm/s
- Vd [7]: 3.39 L/kg
- IC50 [8]: 2 nM
- IC50 (MIA PaCa-2): 52 nM
- IC50 (NCI-H1993): 195 nM
- AUC(0-inf) [9]: 4.97 µM·h
- IC50 [10]: 5 nM
- Activity (A2780 [11]): Active
- inhibition in vivo at 60 mg/kg (HCT-116): 70%
- IC50 [12]: 51 nM
- IC50 (A2780 [13]): 21 nM
- IC50 [14]: 38 nM
- CLint scaled [15]: 25.7 mL/min/kg
- IC50 (A2780 [16]): 21 nM
- Activity (A2780 [17]): Active
- Cmax [18]: 290 nM
- solubility [19]: > 3200 µg/mL
- clearance [20]: 70.2 mL/min/kg
- IC50 [21]: 1660 nM
- IC50 (HT-29): 8 nM
- Activity (Mus musculus): 13%
- IC50 [22]: 140 nM
- IC50 (HL-60): 16 nM
- IC50 [23]: > 10000 nM
- IC50 [24]: 1520 nM
- IC50 [25]: > 10000 nM
- half-life [26]: 1.44 h
